O=C(O)c1ccccc1
Conditions | solubility (mole fraction)
in 2-(2-butoxyethoxy)ethanol, 296.15 K | 0.285
in 2-(2-butoxyethoxy)ethanol, 305.15 K | 0.304
in 2-(2-butoxyethoxy)ethanol, 309.65 K | 0.314
in 2-(2-butoxyethoxy)ethanol, 311.15 K | 0.329
in 2-(2-butoxyethoxy)ethanol, 317.15 K | 0.356
in 2-(2-butoxyethoxy)ethanol, 321.15 K | 0.377
in 2-(2-butoxyethoxy)ethanol, 326.15 K | 0.409
in 2-(2-butoxyethoxy)ethanol, 329.65 K | 0.431
in 2-(2-butoxyethoxy)ethanol, 334.15 K | 0.458
in 2-(2-butoxyethoxy)ethanol, 336.15 K | 0.472
in DMAc, 288.65 K | 0.469
in DMAc, 293.35 K | 0.472
in DMAc, 302.15 K | 0.475
in DMAc, 308.65 K | 0.483
in DMAc, 311.65 K | 0.489
in DMAc, 315.15 K | 0.496
in DMAc, 318.15 K | 0.505
in DMAc, 320.65 K | 0.515
in DMAc, 324.15 K | 0.529
in DMAc, 329.15 K | 0.548
in cyclohexanone, 286.15 K | 0.174
in cyclohexanone, 288.95 K | 0.181
in cyclohexanone, 294.15 K | 0.197
in cyclohexanone, 299.15 K | 0.221
in cyclohexanone, 303.65 K | 0.242
in cyclohexanone, 307.95 K | 0.265
in cyclohexanone, 316.15 K | 0.29
in cyclohexanone, 319.15 K | 0.315
in cyclohexanone, 322.15 K | 0.337
in cyclohexanone, 326.15 K | 0.362
in decalin, 296.15 K | 0.0147
in decalin, 301.15 K | 0.0163
in decalin, 306.25 K | 0.0196
in decalin, 311.05 K | 0.0249
in decalin, 318.05 K | 0.0355
in decalin, 325.15 K | 0.0495
in decalin, 329.25 K | 0.0589
in decalin, 332.55 K | 0.0687
in decalin, 337.05 K | 0.0887
in decalin, 338.65 K | 0.103
in diethylene glycol, 294.15 K | 0.0746
in diethylene glycol, 298.15 K | 0.0995
in diethylene glycol, 302.35 K | 0.131
in diethylene glycol, 305.15 K | 0.148
in diethylene glycol, 309.35 K | 0.183
in diethylene glycol, 314.65 K | 0.225
in diethylene glycol, 319.95 K | 0.269
in diethylene glycol, 324.15 K | 0.3
in diethylene glycol, 327.95 K | 0.336
in diethylene glycol, 332.25 K | 0.367
in ethylene glycol, 291.65 K | 0.0449
in ethylene glycol, 298.15 K | 0.0539
in ethylene glycol, 300.95 K | 0.0604
in ethylene glycol, 303.15 K | 0.0689
in ethylene glycol, 306.65 K | 0.0823
in ethylene glycol, 310.15 K | 0.097
in ethylene glycol, 314.15 K | 0.112
in ethylene glycol, 320.15 K | 0.14
in ethylene glycol, 324.15 K | 0.155
in ethylene glycol, 330.65 K | 0.185
in m-xylene, 296.15 K | 0.0649
in m-xylene, 302.15 K | 0.0823
in m-xylene, 306.15 K | 0.0928
in m-xylene, 312.65 K | 0.117
in m-xylene, 315.15 K | 0.129
in m-xylene, 320.15 K | 0.154
in m-xylene, 323.15 K | 0.173
in m-xylene, 330.65 K | 0.22
in m-xylene, 334.15 K | 0.246
in m-xylene, 336.15 K | 0.257
in n-octane, 313.15 K | 0.024
in n-octane, 322.35 K | 0.033
in n-octane, 325.15 K | 0.0365
in n-octane, 329.15 K | 0.0448
in n-octane, 334.15 K | 0.0578
in n-octane, 338.35 K | 0.0718
in n-octane, 342.65 K | 0.0865
in n-octane, 345.15 K | 0.0955
in n-octane, 348.15 K | 0.11
in n-octane, 354.15 K | 0.134
in o-xylene, 297.15 K | 0.0655
in o-xylene, 300.15 K | 0.0735
in o-xylene, 303.15 K | 0.0853
in o-xylene, 308.65 K | 0.101
in o-xylene, 311.15 K | 0.115
in o-xylene, 316.15 K | 0.139
in o-xylene, 321.15 K | 0.162
in o-xylene, 325.15 K | 0.189
in o-xylene, 332.15 K | 0.218
in o-xylene, 334.15 K | 0.239
in p-xylene, 295.15 K | 0.0628
in p-xylene, 299.65 K | 0.0743
in p-xylene, 302.15 K | 0.0819
in p-xylene, 307.15 K | 0.0953
in p-xylene, 311.45 K | 0.115
in p-xylene, 320.65 K | 0.148
in p-xylene, 323.15 K | 0.169
in p-xylene, 326.95 K | 0.191
in p-xylene, 331.15 K | 0.218
in p-xylene, 335.15 K | 0.244
in propionic acid, 291.15 K | 0.146
in propionic acid, 294.65 K | 0.149
in propionic acid, 300.15 K | 0.171
in propionic acid, 304.45 K | 0.19
in propionic acid, 308.15 K | 0.213
in propionic acid, 314.15 K | 0.235
in propionic acid, 317.15 K | 0.251
in propionic acid, 322.15 K | 0.271
in propionic acid, 325.15 K | 0.293
in propionic acid, 330.15 K | 0.332
in sulfolane, 305.15 K | 0.122
in sulfolane, 312.15 K | 0.132
in sulfolane, 314.15 K | 0.138
in sulfolane, 318.65 K | 0.156
in sulfolane, 325.15 K | 0.192
in sulfolane, 329.15 K | 0.216
in sulfolane, 333.65 K | 0.245
in sulfolane, 338.15 K | 0.282
in sulfolane, 343.15 K | 0.315
in sulfolane, 345.15 K | 0.33
